Data taken from ChEMBL document CHEMBL3301562, “MMV Box screening against Plasmodium falciparum protein kinases and aminoacyl tRNA synthetases”.

Legend:
Format in all cases: functional
Lysine--tRNA ligase = Lysine--tRNA ligase (Plasmodium falciparum (isolate 3D7), UniProt Q8IDJ8); assay: MMV: KRS recombinant Plasmodium falciparum Lysyl-tRNA-synthetase, assay with yeast tRNA, ATP, and lysine and 3 uM MMV malaria box compound, assay read out with kinase glo as % inhibition.
[1] = target: T1, Calcium-dependent protein kinase 4 (Plasmodium falciparum (isolate 3D7), UniProt Q8IBS5); assay: MMV: CDPK4 Protein kinase inhibition assay using recombinant PfCDPK4, syntide2 peptide substrate, ATP and KinaseGlo to measure % inhibition at 1 uM MMV box compound.
T1 sequence (Q8IBS5 whole entry): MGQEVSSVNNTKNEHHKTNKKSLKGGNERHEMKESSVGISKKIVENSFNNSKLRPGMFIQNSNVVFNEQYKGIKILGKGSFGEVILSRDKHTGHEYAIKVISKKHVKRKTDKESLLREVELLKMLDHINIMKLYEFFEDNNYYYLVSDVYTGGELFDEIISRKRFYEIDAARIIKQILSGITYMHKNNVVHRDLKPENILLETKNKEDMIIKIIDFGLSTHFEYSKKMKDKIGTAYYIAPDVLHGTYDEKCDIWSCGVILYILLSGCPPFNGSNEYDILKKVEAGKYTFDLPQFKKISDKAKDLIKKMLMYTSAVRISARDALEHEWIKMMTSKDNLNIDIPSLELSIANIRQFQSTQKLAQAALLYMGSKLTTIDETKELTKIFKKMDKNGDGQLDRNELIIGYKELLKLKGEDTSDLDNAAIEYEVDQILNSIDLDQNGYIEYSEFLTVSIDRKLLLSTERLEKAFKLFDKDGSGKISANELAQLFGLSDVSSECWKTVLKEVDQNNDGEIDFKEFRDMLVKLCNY

[2] = target: T2, Putative uncharacterized protein pk7 (Plasmodium falciparum, UniProt O96214); assay: Final concentrations were 1 uM ATP, 2 mM DTT, 20 mM MgCl2, 2 mM MnCl2, 0.01% BSA, and 6 ug/ml PK7, in a buffer of 20 mM Tris-HCl (pH 7.5). The enzyme itself was the only substrate present (since autophosphorylation occurs); 100 uM 1NA-PP1 was used as a control inhibitor. Incubation time was 3 hours.
T2 sequence (O96214 whole entry): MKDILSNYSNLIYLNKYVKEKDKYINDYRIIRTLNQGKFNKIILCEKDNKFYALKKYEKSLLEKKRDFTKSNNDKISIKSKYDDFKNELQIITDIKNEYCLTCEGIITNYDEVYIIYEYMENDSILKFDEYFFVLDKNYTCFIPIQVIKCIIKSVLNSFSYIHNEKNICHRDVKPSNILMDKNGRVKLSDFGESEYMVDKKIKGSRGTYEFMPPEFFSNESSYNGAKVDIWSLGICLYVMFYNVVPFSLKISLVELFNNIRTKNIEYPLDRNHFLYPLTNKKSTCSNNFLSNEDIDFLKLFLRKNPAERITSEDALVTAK

[3] = target: Calcium-dependent protein kinase 1 (Plasmodium falciparum, UniProt P62344); assay: MMV: CDPK1 Protein kinase inhibition assay using recombinant PfCDPK1, syntide 2 peptide substrate, ATP and KinaseGlo to measure % inhibition at 1 uM MMV box compound.
Proline--tRNA ligase = target: T3, Proline--tRNA ligase (Plasmodium falciparum (isolate 3D7), UniProt Q8I5R7); assay: MMV: ProRS recombinant Plasmodium falciparum Prolyl-tRNA-synthetase, assay with yeast tRNA, ATP, and proline and 3 uM MMV malaria box compound, assay read out with kinase glo as % inhibition.
T3 sequence (Q8I5R7 whole entry): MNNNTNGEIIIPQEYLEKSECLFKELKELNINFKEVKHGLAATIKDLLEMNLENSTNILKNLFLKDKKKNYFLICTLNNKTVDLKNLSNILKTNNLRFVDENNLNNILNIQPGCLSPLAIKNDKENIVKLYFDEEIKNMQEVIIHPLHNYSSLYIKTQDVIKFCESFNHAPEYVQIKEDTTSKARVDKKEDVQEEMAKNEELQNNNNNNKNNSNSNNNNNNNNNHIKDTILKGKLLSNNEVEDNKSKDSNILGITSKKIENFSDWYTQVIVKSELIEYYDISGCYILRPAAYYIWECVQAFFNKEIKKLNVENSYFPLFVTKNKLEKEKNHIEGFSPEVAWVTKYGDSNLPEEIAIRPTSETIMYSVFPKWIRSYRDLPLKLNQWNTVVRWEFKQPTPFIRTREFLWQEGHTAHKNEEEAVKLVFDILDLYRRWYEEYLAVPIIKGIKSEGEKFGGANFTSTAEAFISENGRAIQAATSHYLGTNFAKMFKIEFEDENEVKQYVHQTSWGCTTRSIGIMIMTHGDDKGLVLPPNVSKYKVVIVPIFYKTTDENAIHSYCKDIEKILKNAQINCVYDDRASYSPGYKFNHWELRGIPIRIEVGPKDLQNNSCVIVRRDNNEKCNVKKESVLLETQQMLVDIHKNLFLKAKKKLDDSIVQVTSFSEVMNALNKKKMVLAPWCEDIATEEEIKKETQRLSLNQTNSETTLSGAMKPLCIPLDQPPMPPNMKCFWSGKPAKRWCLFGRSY

[4] = target: T4, Mitogen-activated protein kinase (Plasmodium falciparum, UniProt Q25917); assay: Final concentrations were 1 uM ATP, 0.5 mM DTT, 1 mM MgCl2, 0.5 mg/mL BSA, and 10 ug/ml MAP2 in a buffer of 50 mM HEPES (pH 7.0). 0.5 mg/mL histone III-S served as the substrate (13); 100 uM AMP-PNP, an ATP analog, was used as a control inhibitor. Incubation time was 4 hours.
T4 sequence (Q25917 whole entry): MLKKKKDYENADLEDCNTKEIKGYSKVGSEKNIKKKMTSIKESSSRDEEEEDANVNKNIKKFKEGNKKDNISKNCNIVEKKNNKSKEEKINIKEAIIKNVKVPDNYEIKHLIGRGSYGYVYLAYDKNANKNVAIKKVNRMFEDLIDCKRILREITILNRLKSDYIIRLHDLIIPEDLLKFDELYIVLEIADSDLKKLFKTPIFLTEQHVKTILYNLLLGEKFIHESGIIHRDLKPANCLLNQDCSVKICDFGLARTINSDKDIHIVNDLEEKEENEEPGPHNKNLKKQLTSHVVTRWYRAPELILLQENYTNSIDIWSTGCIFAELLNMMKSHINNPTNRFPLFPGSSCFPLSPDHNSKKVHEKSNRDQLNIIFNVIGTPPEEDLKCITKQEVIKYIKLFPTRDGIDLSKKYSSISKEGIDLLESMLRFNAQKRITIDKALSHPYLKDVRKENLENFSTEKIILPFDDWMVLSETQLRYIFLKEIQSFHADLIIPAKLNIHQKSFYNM

[5] = target: T5, Cdk-related protein kinase 6 (Plasmodium falciparum, UniProt O77239); assay: Final concentrations were 1.5 uM ATP, 5 mM MnCl2, and 15 ug/ml PK6 in a buffer of 100 mM Tris-HCl (pH 7.5). 50 ug/mL MBP was provided as the substrate; 10 uM staurosporine was used as a control inhibitor. Incubation time was 3 hours and 40 minutes.The catalytic activity of each kinase was considered proportional to ATP consumed, as determined from measurements of residual [ATP] with the luciferase-based reagent Kinase-Glo (Promega) following incubation. Luminescence (proportional to residual [ATP]) was measured on the plate readers FLx800 (BioTek Instruments, Winooski, VT, USA) and MicroBeta2.
T5 sequence (O77239 whole entry): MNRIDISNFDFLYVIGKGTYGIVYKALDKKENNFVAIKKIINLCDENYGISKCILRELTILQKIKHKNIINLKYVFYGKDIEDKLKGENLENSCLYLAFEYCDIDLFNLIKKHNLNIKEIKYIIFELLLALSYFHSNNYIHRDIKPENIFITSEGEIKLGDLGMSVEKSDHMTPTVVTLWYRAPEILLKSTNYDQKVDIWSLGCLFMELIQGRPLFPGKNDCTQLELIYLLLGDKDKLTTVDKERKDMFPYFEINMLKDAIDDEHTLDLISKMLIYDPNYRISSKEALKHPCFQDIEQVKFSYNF

Chain of Calcium-dependent protein kinase 1 (P62344 whole entry): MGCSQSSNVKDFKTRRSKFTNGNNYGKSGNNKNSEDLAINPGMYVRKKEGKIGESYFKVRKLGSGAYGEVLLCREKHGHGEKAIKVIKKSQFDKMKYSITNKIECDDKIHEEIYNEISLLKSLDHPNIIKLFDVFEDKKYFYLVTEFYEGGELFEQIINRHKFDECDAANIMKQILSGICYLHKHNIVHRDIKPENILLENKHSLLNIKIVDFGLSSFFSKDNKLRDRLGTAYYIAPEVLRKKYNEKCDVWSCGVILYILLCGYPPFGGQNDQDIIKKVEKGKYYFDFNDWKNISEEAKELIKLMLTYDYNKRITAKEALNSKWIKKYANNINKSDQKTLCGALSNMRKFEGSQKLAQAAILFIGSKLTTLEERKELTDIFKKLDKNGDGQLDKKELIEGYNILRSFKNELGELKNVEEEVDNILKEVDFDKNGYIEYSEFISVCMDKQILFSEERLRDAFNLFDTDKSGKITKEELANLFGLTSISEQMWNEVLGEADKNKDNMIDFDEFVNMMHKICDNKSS
Chain of Lysine--tRNA ligase (Q8IDJ8 whole entry): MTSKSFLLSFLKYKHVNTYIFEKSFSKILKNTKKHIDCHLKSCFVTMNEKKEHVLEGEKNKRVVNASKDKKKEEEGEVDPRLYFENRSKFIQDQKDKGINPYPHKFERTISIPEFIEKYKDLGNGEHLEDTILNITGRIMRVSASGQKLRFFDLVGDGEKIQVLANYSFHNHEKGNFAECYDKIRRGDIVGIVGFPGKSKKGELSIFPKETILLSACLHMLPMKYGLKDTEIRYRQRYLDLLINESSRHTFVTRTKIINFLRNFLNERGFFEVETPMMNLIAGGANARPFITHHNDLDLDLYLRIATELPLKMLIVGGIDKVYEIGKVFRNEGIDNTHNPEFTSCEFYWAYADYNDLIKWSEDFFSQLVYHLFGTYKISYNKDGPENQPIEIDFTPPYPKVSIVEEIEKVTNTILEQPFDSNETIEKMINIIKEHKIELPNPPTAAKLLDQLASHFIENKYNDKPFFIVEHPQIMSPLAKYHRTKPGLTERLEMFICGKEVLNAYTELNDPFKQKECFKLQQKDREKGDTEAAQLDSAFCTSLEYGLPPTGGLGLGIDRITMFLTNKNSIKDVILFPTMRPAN

| SMILES | IC50 (Lysine--tRNA ligase) | IC50 [1] | IC50 [2] | IC50 [3] | IC50 (Proline--tRNA ligase) | IC50 [4] | IC50 [5] |
| --- | --- | --- | --- | --- | --- | --- | --- |
| COc1ccc2c(c1)C1(Nc3ccccc3-c3nc4ccccc4n31)C(=O)N2 (configuration not stated) | > 2500 nM | > 1000 nM | > 1000 nM | > 1000 nM | > 2500 nM | > 1000 nM | > 1000 nM |
| COc1cccc(Cn2c(Oc3ccccc3)nc3c2c(=O)n(C)c(=O)n3C)c1 | > 2500 nM | > 1000 nM | > 1000 nM | > 1000 nM | > 2500 nM | > 1000 nM | > 1000 nM |
| CCOc1c(Cl)cc(CNCC(O)c2ccccc2)cc1OC (configuration not stated) | > 2500 nM | > 1000 nM | > 1000 nM | > 1000 nM | > 2500 nM | > 1000 nM | > 1000 nM |
| O=C(Nc1ccc(Br)cc1)Nc1cccc(Cl)c1 | > 2500 nM | > 1000 nM | > 1000 nM | > 1000 nM | > 2500 nM | > 1000 nM | > 1000 nM |
| CN(C)CCNc1cc(-c2ccccc2)nc2ccccc12 | > 2500 nM | > 1000 nM | > 1000 nM | > 1000 nM | > 2500 nM | > 1000 nM | > 1000 nM |
| COc1ccc2nc(C)cc(Nc3ccc(Cl)cc3)c2c1 | > 2500 nM | > 1000 nM | > 1000 nM | > 1000 nM | > 2500 nM | > 1000 nM | > 1000 nM |
| Cc1sc2ncnc(Sc3nc4ccccc4[nH]3)c2c1C | > 2500 nM | > 1000 nM | > 1000 nM | > 1000 nM | > 2500 nM | > 1000 nM | > 1000 nM |
| O=C(Nc1ccc(CN2CCOCC2)cc1)c1ccc(-c2cc(Cl)ccc2Cl)o1 | > 2500 nM | > 1000 nM | > 1000 nM | > 1000 nM | > 2500 nM | > 1000 nM | > 1000 nM |
| Cc1cc(Nc2cccc(F)c2)nc(NCc2ccccc2)n1 | > 2500 nM | > 1000 nM | > 1000 nM | > 1000 nM | > 2500 nM | > 1000 nM | > 1000 nM |
| COCCn1c(C)nc2ccccc2c1=O | > 2500 nM | > 1000 nM | > 1000 nM | > 1000 nM | > 2500 nM | > 1000 nM | > 1000 nM |
| O=C(NC1CCN(Cc2ccccc2)CC1)c1cc(-c2cccnc2)nc2ccc(Cl)cc12 | > 2500 nM | > 1000 nM | > 1000 nM | > 1000 nM | > 2500 nM | > 1000 nM | > 1000 nM |
